Each structure is given as a SMILES string. Structures can show the parent of a compound that is named as a salt. Where two headings read alike, the source gives them in different places.

We go through 21 compounds from US10106515B2, “1-(cyclopent-2-en-1-yl)-3-(2-hydroxy-3-(arylsulfonyl)phenyl)urea derivatives as CXCR2 inhibitors” (GLAXOSMITHKLINE INTELLECTUAL PROPERTY DEVELOPMENT LIMITED, priority 2014, dated 2018).

Assay [1] relates to upregulation of CD11b in GROα stimulated neutrophils in human whole blood. Kind of assay: Human whole blood assay (CD11b upregulation). It counts as cell-based. Particulars: Neutrophil, inhibition of CD11b upregulation, GROα 33 nM final, flow cytometry, read-out: pIC50 (human whole blood assay) (converted). The method, then: The whole blood assay tested the compounds' ability to inhibit the upregulation of CD11b in GROα stimulated neutrophils in human whole blood.
Blood was withdrawn by venipuncture from consented adults and poured into a Sterilin tube containing an anti-coagulant Heparin (10 uL/mL of blood). All the test compounds were dissolved in DMSO to 4 mM and serial diluted across the plate, 1 in 3 to provide 10 point dose response curves. The compounds were then diluted 100 fold in -PBS [Phosphate buffered saline (without Calcium Chloride and Magnesium Chloride)] after which, 1 uL was dispensed in 96 U bottom Costar plates using an FX.
10 uL of blood was transferred to the compound plate using a multi-channel pipette, gently tapped and incubated for 15 minutes, at 37° C. After 15 minutes, the stimulant GROα was diluted to 100 nM in 0.1% BSA (Albumin Bovine Serum)-PBS and 5 uL is dispensed across the whole plate for a final concentration of 33 nM. The plate was gently tapped and incubated further for 15 minutes at 37° C. The plate was placed on ice for 1 minute before addition of 10 uL of an antibody cocktail consisting of CD11b-FITC (40 ug/mL) purchased from BioLegend (address: Cambridge Bioscience, Munro House, Trafalgar Way, Bar Hill, Cambridge, UK) and CD16-PE purchased from BD Pharmingen (address: The Danby Building, Edmung Halley Road, Oxford Science Park, Oxford, UK) (stock concentration 100 tests, 2 mL stock volume is diluted 1 in 5). The plate was placed on ice for 1 hour in the dark. The cells were then fixed using 200 uL/well of 1×FACS (Flow Activated Cell Sorting) Lyse solution (Becton and Dickinson-BD) and on ice for 20 minutes in the dark. The plate was centrifuged at 1600 rpm for 5 minutes and re-suspended with 200 uL of ice cold PBS. This step was repeated twice and on the final step the plate was re-suspended with 50 uL of ice cold -PBS for flow Cytometric analysis.
Samples were run on a Becton and Dickinson (BD)-Acurri C6 Flow Cytometer using a HyperCyt sampling apparatus (IntelliCyt) with a flow rate 2 uL/sec. CD11b upregulation is monitored in neutrophils and identified using a combination of both side scatter and CD16 expression.
For orientation: Flow cytometry measures light scatter and fluorescence of single cells or particles in a stream.

Another assay addresses T1, recombinant human CXCR2 (Homo sapiens, UniProt P25025).
T1 construct: TEV protease site; Gal4-VP16 transcription factor
T1 sequence (P25025 1-360): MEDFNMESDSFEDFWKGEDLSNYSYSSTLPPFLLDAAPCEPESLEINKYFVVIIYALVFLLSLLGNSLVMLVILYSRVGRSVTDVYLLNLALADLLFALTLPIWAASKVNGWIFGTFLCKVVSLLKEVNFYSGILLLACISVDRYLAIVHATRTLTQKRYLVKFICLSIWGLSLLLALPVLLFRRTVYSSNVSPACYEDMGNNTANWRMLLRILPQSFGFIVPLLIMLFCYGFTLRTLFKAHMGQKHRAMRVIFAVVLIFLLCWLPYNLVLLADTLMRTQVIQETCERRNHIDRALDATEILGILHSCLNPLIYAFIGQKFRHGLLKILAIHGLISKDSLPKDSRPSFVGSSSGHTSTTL
In words: CXCR2 Tango assay. Type of assay: cell-based. Particulars: mean pIC50 of multiple test results; stimulated with 80 nM hCXCL1; reporter gene blue/green emission ratio; read-out: pIC50 (CXCR2 Tango assay) (converted). Summed up: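 A stable cell line carries human CXCR2 fused to a TEV site and Gal4-VP16, with protease-tagged arrestin. Cells (~10,000/well) were stimulated overnight at 37 °C with 80 nM hCXCL1 and a 10-point compound dilution. CCF4-AM beta-lactamase FRET (460/530 nm ratio) was read, normalized to hCXCL1 and DMSO, and mean pIC50 reported.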

On to `CC1=CCC[C@H]1NC(=O)Nc1ccc(Cl)c(S(=O)(=O)N2CCNCC2)c1O` [Compound 199, (R)-1-(4-chloro-2-hydroxy-3-(piperazin-1-ylsulfonyl)phenyl)-3-(2-methylcyclopent-2-en-1-yl)urea, trifluoroacetic acid salt], for which the IC50 in assay [1] is 25.1 to 2510 nM; at recombinant human CXCR2, at most 10 nM.

Turning to `[2H]C([2H])([2H])C1(S(=O)(=O)c2c(Cl)ccc(NC(=O)N[C@@H]3CCC=C3Cl)c2O)CCOCC1` [Compound 41], the IC50 in assay [1] is 25.1 to 2510 nM; on recombinant human CXCR2 it was at most 1 nM.

On to `O=C(Nc1ccc(Cl)c(S(=O)(=O)[C@H]2C[C@@H](O)C2)c1O)NC1CCC=C1Cl` (stereo partly drawn) [Compound 165, 1-(4-chloro-2-hydroxy-3-((cis-3-hydroxycyclobutyl)sulfonyl)phenyl)-3-(2-chlorocyclopent-2-en-1-yl)urea], for which the IC50 in assay [1] was 25.1 to 2510 nM; on recombinant human CXCR2, at most 10 nM.

As to `CC1=CCC[C@H]1NC(=O)Nc1ccc(Cl)c(S(=O)(=O)C2(F)CCOCC2)c1O` [Compound 75, (R)-1-(4-chloro-3-((4-fluorotetrahydro-2H-pyran-4-yl)sulfonyl)-2-hydroxyphenyl)-3-(2-methylcyclopent-2-en-1-yl)urea], the IC50 in assay [1] was 25.1 to 2510 nM; at recombinant human CXCR2, at most 1 nM.

For the compound `O=C(Nc1ccc(Cl)c(S(=O)(=O)[C@H]2C[C@H](N3CCCC3)C2)c1O)N[C@@H]1CCC=C1Cl` [Compound 185, 1-(4-chloro-2-hydroxy-3-((trans-3-(pyrrolidin-1-yl)cyclobutyl)sul-fonyl)phenyl)-3-((R)-2-chlorocyclopent-2-en-1-yl)urea, trifluoroacetic acid salt], the IC50 was 25.1 to 2510 nM in assay [1] and at most 10 nM on recombinant human CXCR2.

On to `CC1=CCC[C@H]1NC(=O)Nc1ccc(Cl)c(S(=O)(=O)N2CCN3CCC[C@@]3(C)C2)c1O` [Compound 93, 1-(4-chloro-2-hydroxy-3-(((S)-8a-methylhexahydro-pyrrolo[1,2-a]pyrazin-2(1H)-yl)sulfonyl)phenyl)-3-((R)-2-methylcyclopent-2-en-1-yl)urea, trifluoroacetic acid salt], for which the figures for the IC50 (in assay [1]; at recombinant human CXCR2) were 25.1 to 2510 nM and at most 10 nM, respectively.

For `CC1=CCC[C@H]1NC(=O)Nc1ccc(Cl)c(S(=O)(=O)C2(C)CCOCC2)c1O` [Compound 69, (R)-1-(4-chloro-2-hydroxy-3-((4-methyltetrahydro-2H-pyran-4-yl)sulfonyl)phenyl)-3-(2-methylcyclopent-2-en-1-yl)urea], the IC50 in assay [1] is 25.1 to 2510 nM; at recombinant human CXCR2, at most 1 nM.

On to `CC1=CCC[C@H]1NC(=O)Nc1ccc(Cl)c(S(=O)(=O)C(C)(C)C)c1O` [Compound 57], for which the values for the IC50 (in assay [1]; at recombinant human CXCR2) were 25.1 to 2510 nM and at most 1 nM, respectively.

With `CC1=CCCC1NC(=O)Nc1ccc(Cl)c(S(=O)(=O)N2CC(F)C2)c1O` (stereo not drawn) [Compound 112, 1-(4-chloro-3-((3-fluoroazetidin-1-yl)sulfonyl)-2-hydroxyphenyl)-3-(2-methylcyclopent-2-en-1-yl)urea], the IC50 was 25.1 to 2510 nM in assay [1] and at most 10 nM at recombinant human CXCR2.

For the compound `[2H]C([2H])([2H])C1(S(=O)(=O)c2c(Cl)ccc(NC(=O)N[C@@H]3CCC=C3C)c2O)CCOCC1` [Compound 70], the values for the IC50 (in assay [1]; on recombinant human CXCR2) were 25.1 to 2510 nM and at most 1 nM, respectively.

For the compound `CC1=CCC[C@H]1NC(=O)Nc1ccc(C#N)c(S(=O)(=O)C(C)(C)F)c1O` [Compound 123, (R)-1-(4-cyano-3-((2-fluoropropan-2-yl)sulfonyl)-2-hydroxyphenyl)-3-(2-methylcyclopent-2-en-1-yl)urea], the IC50 in assay [1] was 25.1 to 2510 nM; at recombinant human CXCR2, at most 1 nM.

With `CC1=CCC[C@H]1NC(=O)Nc1ccc(Cl)c(S(=O)(=O)[C@H]2C[C@H](N3CCCC3)C2)c1O` [Compound 192, 1-(4-chloro-2-hydroxy-3-((trans-3-(pyrrolidin-1-yl)cyclobutyl)sulfonyl)phenyl)-3-((R)-2-methylcyclopent-2-en-1-yl)urea], the IC50 in assay [1] (Homo sapiens) was 25.1 to 2510 nM; on recombinant human CXCR2 it was at most 1 nM.

Regarding `CC1=CCCC1NC(=O)Nc1ccc(Cl)c(S(=O)(=O)C2CCOCC2)c1O` (stereo not drawn) [Compound 110, 1-(4-chloro-2-hydroxy-3-((tetrahydro-2H-pyran-4-yl)sulfonyl)phenyl)-3-(2-methylcyclopent-2-en-1-yl)ureac], the IC50 was 25.1 to 2510 nM in assay [1] and at most 10 nM at recombinant human CXCR2.

On to `COC[C@@H](C)S(=O)(=O)c1c(Cl)ccc(NC(=O)N[C@@H]2CCC=C2C)c1O` [Compound 122, 1-(4-chloro-2-hydroxy-3-(((R)-1-methoxypropan-2-yl)sulfonyl)phenyl)-3-((R)-2-methylcyclopent-2-en-1-yl)urea], for which the IC50 is 25.1 to 2510 nM in assay [1] and at most 1 nM on recombinant human CXCR2.

Turning to `CC1=CCCC1NC(=O)Nc1ccc(Cl)c(S(=O)(=O)C(C)C)c1O` (stereo not drawn) [Compound 20, 1-(4-chloro-2-hydroxy-3-(isopropylsulfonyl)phenyl)-3-(2-methylcyclopent-2-en-1-yl)urea], the results for the IC50 (in assay [1]; on recombinant human CXCR2) were 25.1 to 2510 nM and at most 1 nM, respectively.

Regarding `CC1=CCC[C@H]1NC(=O)Nc1ccc(Cl)c(S(=O)(=O)C(C)c2ccccn2)c1O` (stereo partly drawn) [Compound 23, 1-(4-chloro-2-hydroxy-3-((1-(pyridin-2-yl)ethyl)sulfonyl)phenyl)-3-((R)-2-methylcyclopent-2-en-1-yl)urea, trifluoroacetic acid salt], the values for the IC50 (in assay [1]; at recombinant human CXCR2) were 25.1 to 2510 nM and at most 1 nM, respectively.

Turning to `CC1=CCC[C@H]1NC(=O)Nc1ccc(Cl)c(S(=O)(=O)C2CCCOC2)c1O` (stereo partly drawn) [Compound 78, 1-(4-chloro-2-hydroxy-3-((tetrahydro-2H-pyran-3-yl)sulfonyl)phenyl)-3-((R)-2-methylcyclopent-2-en-1-yl)urea], the IC50 in assay [1] is 25.1 to 2510 nM; on recombinant human CXCR2, at most 10 nM.

`CC1=CCCC1NC(=O)Nc1ccc(Cl)c(S(=O)(=O)N2CCN(C)CC2)c1O` (stereo not drawn) [Compound 142, 1-(4-chloro-2-hydroxy-3-((4-methylpiperazin-1-yl)sulfonyl)phenyl)-3-(2-methylcyclopent-2-en-1-yl)urea, trifluoroacetic acid salt]: the IC50 was 25.1 to 2510 nM in assay [1] and at most 10 nM on recombinant human CXCR2.

For `CC1=CCC[C@H]1NC(=O)Nc1ccc(Cl)c(S(=O)(=O)N2CCN(C)CC2)c1O` [Compound 141, (R)-1-(4-chloro-2-hydroxy-3-((4-methylpiperazin-1-yl)sulfonyl)phenyl)-3-(2-methylcyclopent-2-en-1-yl)urea, trifluoroacetic acid salt], the values for the IC50 (in assay [1]; on recombinant human CXCR2) were 25.1 to 2510 nM and at most 10 nM, respectively.

As to `CCN1CCC(F)(S(=O)(=O)c2c(Cl)ccc(NC(=O)N[C@@H]3CCC=C3Cl)c2O)CC1` [Compound 200, (R)-1-(4-chloro-3-((1-ethyl-4-fluoropiperidin-4-yl)sulfonyl)-2-hydroxphenyl)-3-(2-chlorocyclopent-2-en-1-yl)urea], the IC50 in assay [1] is 25.1 to 2510 nM; at recombinant human CXCR2, at most 1 nM.

Consider `CC1=CCC[C@H]1NC(=O)Nc1ccc(C#N)c(S(=O)(=O)C(C)(C)C(F)(F)F)c1O` [Compound 31, (R)-1-(4-cyano-2-hydroxy-3-((1,1,1-trifluoro-2-methylpropan-2-yl)sulfonyl)phenyl)-3-(2-methylcyclopent-2-en-1-yl)urea], for which the IC50 in assay [1] was 25.1 to 2510 nM; at recombinant human CXCR2, at most 1 nM.
